Read-outs that look alike come from different tables or passages of the source.
What was measured:
[1] = tested on: Pseudomonas aeruginosa efflux+ (MB9798), IMP-1; assay type: cell-based; parameters: Concentration of metallo-β-lactamase inhibitor which restores susceptibility of efflux + (MB9798) strain to imipenem: unit not given here; conditions: efflux+ MB9798; imipenem at 2 μg/mL; in the presence of a class A, C, D serine β-lactamase inhibitor closely related to relebactam
How it was run: (§1)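 P. aeruginosa PAO1-derived IMP-1 strains, efflux+ MB9798 and efflux− MB9799, tested by standard microbroth MIC with imipenem and/or ceftazidime fixed, usually at CLSI breakpoint, plus fixed class A/C β-lactamase inhibitor against AmpC. Inhibitor titrated; concentration restoring susceptibility recorded; MB9798/MB9799 fold difference indicates efflux.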

NDM-1 = NDM-1 (Klebsiella pneumoniae, UniProt C7C422); assay: biochemical; assay type: biochemical; conditions: fluorescence assay, CCF2-FA substrate, 1 pM enzyme, 2 hours at 25° C.; read-out: NDM-1 IC50
How it was run: (§2)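 Semi-log dose-response curves, fitted with a 4-parameter model, gave IC50s. The underlying signal was CCF2-FA fluorescence following 2 hours at 25° C with enzyme, substrate and inhibitor combined.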

IMP-1 = IMP-1 (Serratia marcescens, UniProt P52699); assay: biochemical; assay type: biochemical; conditions: fluorescence assay, CCF2-FA substrate, 2 pM enzyme, 2 hours at 25° C.; read-out: IMP-1 IC50
How it was run: as §2

[2] = tested on: Escherichia coli expressing NDM-1 (CLB30005, CLB30016); assay type: cell-based; conditions: NDM-1 strain, with imipenem 1 μg/ml, 95% inhibition of growth
How it was run: (§3)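 Clinical strains grown overnight on blood agar at 35°C, colonies suspended in saline, diluted 1:100 into 1.1×CAMHB. Test compound titrated with imipenem at 1 μg/ml; incubated 22–24 h at 35°C, growth read by absorbance.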

[3] = tested on: Klebsiella pneumoniae expressing VIM-1 (IHMA599644); assay type: cell-based; conditions: VIM-1 strain IHMA599644, with imipenem 1 μg/ml, 95% inhibition of growth
How it was run: as §3

[4] = tested on: Serratia marcescens expressing IMP-1 (CL5741); assay type: cell-based; conditions: IMP-1 strain CL5741, with imipenem 1 μg/ml, 95% inhibition of growth
How it was run: as §3

VIM-1 = VIM-1 (Pseudomonas aeruginosa (strain ATCC 15692 / DSM 22644 / CIP 104116 / JCM 14847 / LMG 12228 / 1C / PRS 101 / PAO1), UniProt A0A0F7KYQ8); assay: biochemical; conditions: CCF2-FA substrate, 30 pM enzyme, 2 hours at 25° C.
How it was run: as §2

[5] = tested on: Pseudomonas aeruginosa MB9798 vs MB9799; conditions: fold difference between efflux+ (MB9798) and efflux− (MB9799) strains; imipenem at 2 μg/mL
How it was run: as §1

[6] = tested on: Pseudomonas aeruginosa efflux− (MB9799), IMP-1; assay type: cell-based; conditions: efflux− MB9799; imipenem at 2 μg/mL; in the presence of a class A, C, D serine β-lactamase inhibitor closely related to relebactam
How it was run: as §1

[7] = fluorescence assay, read-out: VIM-1 IC50

Sequence of NDM-1 (C7C422 whole entry, looked up, species assumed): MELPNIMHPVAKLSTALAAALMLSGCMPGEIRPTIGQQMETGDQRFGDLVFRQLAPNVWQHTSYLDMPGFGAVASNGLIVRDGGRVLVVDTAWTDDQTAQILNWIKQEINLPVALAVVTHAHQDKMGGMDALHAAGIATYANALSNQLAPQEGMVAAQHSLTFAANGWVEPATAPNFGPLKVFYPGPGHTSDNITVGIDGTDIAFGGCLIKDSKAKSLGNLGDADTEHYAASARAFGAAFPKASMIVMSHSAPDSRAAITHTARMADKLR
Sequence of IMP-1 (P52699 whole entry, looked up, species assumed): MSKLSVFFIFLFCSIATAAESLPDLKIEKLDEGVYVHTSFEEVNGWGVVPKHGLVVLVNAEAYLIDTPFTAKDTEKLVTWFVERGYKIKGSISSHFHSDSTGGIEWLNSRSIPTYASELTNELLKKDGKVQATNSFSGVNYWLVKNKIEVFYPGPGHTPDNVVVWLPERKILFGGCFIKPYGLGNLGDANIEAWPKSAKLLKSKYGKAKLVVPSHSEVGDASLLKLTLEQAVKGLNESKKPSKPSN

NCCNS(=O)(=O)c1ccc(-c2cccc3[nH]c(C(F)(F)CN)nc23)c(-c2nn[nH]n2)c1S(N)(=O)=O [Example 445, 4-(2-(2-amino-1,1-difluoroethyl)-1H-benzo[d]imidazol-4-yl)-N1-(2-aminoethyl)-3-(2H-tetrazol-5-yl)benzene-1,2-disulfonamide]
Concentration of metallo-β-lactamase inhibitor which restores susceptibility of efflux + (MB9798) strain to imipenem [1]: 1.563 | IC50 (NDM-1): 0.0446 nM | IC50 (IMP-1): 0.37 nM | Escherichia coli MITC95 [2]: 3.125 µM | Klebsiella pneumoniae MITC95 [3]: 3.125 µM | Serratia marcescens MITC95 [4]: 3.125 µM | IC50 (VIM-1; [7]): 0.114 nM | Efflux ratio [5]: 1.00 | Concentration of metallo-β-lactamase inhibitor which restores susceptibility of efflux − (MB9799) strain to imipenem [6]: 1.563

NCC(F)(F)c1nc2c(-c3ccc(S(=O)(=O)N[C@H]4CCNC4)c(S(N)(=O)=O)c3-c3nn[nH]n3)cccc2[nH]1 [Example 446, (S)-4-(2-(2-amino-1,1-difluoroethyl)-1H-benzo[d]imidazol-4-yl)-N1-(pyrrolidin-3-yl)-3-(2H-tetrazol-5-yl)benzene-1,2-disulfonamide]
Concentration of metallo-β-lactamase inhibitor which restores susceptibility of efflux + (MB9798) strain to imipenem [1]: 3.125 | IC50 (NDM-1): 0.0569 nM | IC50 (IMP-1): 0.446 nM | Escherichia coli MITC95 [2]: 1.563 µM | Klebsiella pneumoniae MITC95 [3]: 3.125 µM | Serratia marcescens MITC95 [4]: 3.125 µM | IC50 (VIM-1; [7]): 0.153 nM | Efflux ratio [5]: 2.00 | Concentration of metallo-β-lactamase inhibitor which restores susceptibility of efflux − (MB9799) strain to imipenem [6]: 1.563

NCCNC(=O)c1cc(Cl)cc(-c2ccc(S(=O)(=O)NCCN)c(S(N)(=O)=O)c2-c2nn[nH]n2)c1N [Example 447, 2-Amino-N-(2-aminoethyl)-4′-(N-(2-aminoethyl)sulfamoyl)-5-chloro-3′-sulfamoyl-2′-(2H-tetrazol-5-yl)-[1,1′-biphenyl]-3-carboxamide]
Concentration of metallo-β-lactamase inhibitor which restores susceptibility of efflux + (MB9798) strain to imipenem [1]: 1.563 | IC50 (NDM-1): 0.646 nM | IC50 (IMP-1): 1.6 nM | Escherichia coli MITC95 [2]: 0.7813 µM | Klebsiella pneumoniae MITC95 [3]: 1.563 µM | Serratia marcescens MITC95 [4]: 0.7813 µM | IC50 (VIM-1; VIM-1 IC50, fluorescence assay): 0.18 nM | Efflux ratio [5]: 2.00 | Concentration of metallo-β-lactamase inhibitor which restores susceptibility of efflux − (MB9799) strain to imipenem [6]: 0.7813

Nc1nc2c(-c3ccc(S(=O)(=O)N[C@@H]4C[C@H]4N)c(S(N)(=O)=O)c3-c3nnn[nH]3)cccc2[nH]1 [Example 448, 4-(2-amino-1H-benzo[d]imidazol-4-yl)-N^1-((1R,2R)-2-aminocyclopropyl)-3-(1H-tetrazol-5-yl)benzene-1,2-disulfonamide]
Concentration of metallo-β-lactamase inhibitor which restores susceptibility of efflux + (MB9798) strain to imipenem [1]: 1.563 | IC50 (NDM-1): 0.151 nM | IC50 (IMP-1): 0.988 nM | Escherichia coli MITC95 [2]: 0.7813 µM | Klebsiella pneumoniae MITC95 [3]: 6.25 µM | Serratia marcescens MITC95 [4]: 1.563 µM | IC50 (VIM-1; [7]): 0.557 nM | Efflux ratio [5]: 0.50 | Concentration of metallo-β-lactamase inhibitor which restores susceptibility of efflux − (MB9799) strain to imipenem [6]: 3.125

CN(CCN)S(=O)(=O)c1ccc(-c2cccc3[nH]c(N)nc23)c(-c2nn[nH]n2)c1S(N)(=O)=O [Example 449, 4-(2-amino-1H-benzo[d]imidazol-4-yl)-N^1-(2-aminoethyl)-N^1-methyl-3-(2H-tetrazol-5-yl)benzene-1,2-disulfonamide]
Concentration of metallo-β-lactamase inhibitor which restores susceptibility of efflux + (MB9798) strain to imipenem [1]: 6.25 | IC50 (NDM-1): 7.73 nM | IC50 (IMP-1): 11.8 nM | Escherichia coli MITC95 [2]: 0.7813 µM | Klebsiella pneumoniae MITC95 [3]: 12.5 µM | Serratia marcescens MITC95 [4]: 1.563 µM | IC50 (VIM-1; VIM-1 IC50, fluorescence assay): 27.8 nM | Efflux ratio [5]: 4.00 | Concentration of metallo-β-lactamase inhibitor which restores susceptibility of efflux − (MB9799) strain to imipenem [6]: 1.563

NCCNC(=O)c1cc(-c2ccc(S(=O)(=O)NCCN)c(S(N)(=O)=O)c2-c2nn[nH]n2)ccc1N [Example 451, 4-Amino-N-(2-aminoethyl)-4′-(N-(2-aminoethyl)sulfamoyl)-3′-sulfamoyl-2′-(2H-tetrazol-5-yl)-[1,1′-biphenyl]-3-carboxamide]
Concentration of metallo-β-lactamase inhibitor which restores susceptibility of efflux + (MB9798) strain to imipenem [1]: 1.563 | IC50 (NDM-1): 1.7 nM | IC50 (IMP-1): 4.02 nM | Escherichia coli MITC95 [2]: 0.7813 µM | Klebsiella pneumoniae MITC95 [3]: 0.7813 µM | Serratia marcescens MITC95 [4]: 0.7813 µM | IC50 (VIM-1; [7]): 0.557 nM | Efflux ratio [5]: 2.00 | Concentration of metallo-β-lactamase inhibitor which restores susceptibility of efflux − (MB9799) strain to imipenem [6]: 0.7813

NCCNS(=O)(=O)c1ccc(-c2ccccc2NC(=O)CN)c(-c2nn[nH]n2)c1S(N)(=O)=O [Example 452]
Concentration of metallo-β-lactamase inhibitor which restores susceptibility of efflux + (MB9798) strain to imipenem [1]: 6.25 | IC50 (NDM-1): 1.72 nM | IC50 (IMP-1): 6.21 nM | Escherichia coli MITC95 [2]: 3.125 µM | Klebsiella pneumoniae MITC95 [3]: 6.25 µM | Serratia marcescens MITC95 [4]: 3.125 µM | IC50 (VIM-1; [7]): 0.994 nM | Efflux ratio [5]: 4.00 | Concentration of metallo-β-lactamase inhibitor which restores susceptibility of efflux − (MB9799) strain to imipenem [6]: 1.563

NCCNS(=O)(=O)c1ccc(-c2cccc(NC(=O)[C@@H](N)CN)c2)c(-c2nn[nH]n2)c1S(N)(=O)=O [Example 453, (S)-2,3-Diamino-N-(4′-(N-(2-aminoethyl)sulfamoyl)-3′-sulfamoyl-2′-(2H-tetrazol-5-yl)-[1,1′-biphenyl]-3-yl)propanamide]
Concentration of metallo-β-lactamase inhibitor which restores susceptibility of efflux + (MB9798) strain to imipenem [1]: 3.125 | IC50 (NDM-1): 0.87 nM | IC50 (IMP-1): 3.52 nM | Escherichia coli MITC95 [2]: 1.563 µM | Klebsiella pneumoniae MITC95 [3]: 3.125 µM | Serratia marcescens MITC95 [4]: 3.125 µM | IC50 (VIM-1; [7]): 0.244 nM | Efflux ratio [5]: 2.00 | Concentration of metallo-β-lactamase inhibitor which restores susceptibility of efflux − (MB9799) strain to imipenem [6]: 1.563

NCCNS(=O)(=O)c1ccc(-c2cccc(NC(=O)[C@H](N)CO)c2)c(-c2nn[nH]n2)c1S(N)(=O)=O [Example 454, (R)-2-amino-N-(4′-(N-(2-aminoethyl)sulfamoyl)-3′-sulfamoyl-2′-(2H-tetrazol-5-yl)-[1,1′-biphenyl]-3-yl)-3-hydroxypropanamide]
Concentration of metallo-β-lactamase inhibitor which restores susceptibility of efflux + (MB9798) strain to imipenem [1]: 3.125 | IC50 (NDM-1): 0.757 nM | IC50 (IMP-1): 3.46 nM | Escherichia coli MITC95 [2]: 1.563 µM | Klebsiella pneumoniae MITC95 [3]: 6.25 µM | Serratia marcescens MITC95 [4]: 3.125 µM | IC50 (VIM-1; [7]): 0.262 nM | Efflux ratio [5]: 2.00 | Concentration of metallo-β-lactamase inhibitor which restores susceptibility of efflux − (MB9799) strain to imipenem [6]: 1.563

NCCNS(=O)(=O)c1ccc(-c2cccc3c2CCCN3)c(-c2nn[nH]n2)c1S(N)(=O)=O [Example 455, N1-(2-Aminoethyl)-4-(1,2,3,4-tetrahydroquinolin-5-yl)-3-(2H-tetrazol-5-yl)benzene-1,2-disulfonamide]
Concentration of metallo-β-lactamase inhibitor which restores susceptibility of efflux + (MB9798) strain to imipenem [1]: 12.5 | IC50 (NDM-1): 0.216 nM | IC50 (IMP-1): 0.53 nM | Escherichia coli MITC95 [2]: 1.563 µM | Klebsiella pneumoniae MITC95 [3]: 3.125 µM | Serratia marcescens MITC95 [4]: 3.125 µM | IC50 (VIM-1; [7]): 0.163 nM | Efflux ratio [5]: 8.00 | Concentration of metallo-β-lactamase inhibitor which restores susceptibility of efflux − (MB9799) strain to imipenem [6]: 1.563

NCCNc1cc(-c2ccc(S(=O)(=O)NCCN)c(S(N)(=O)=O)c2-c2nn[nH]n2)ccn1 [Example 456, N1-(2-Aminoethyl)-4-(2-((2-aminoethyl)amino)pyridin-4-yl)-3-(2H-tetrazol-5-yl)benzene-1,2-disulfonamide]
Concentration of metallo-β-lactamase inhibitor which restores susceptibility of efflux + (MB9798) strain to imipenem [1]: 1.563 | IC50 (NDM-1): 1.56 nM | IC50 (IMP-1): 3.77 nM | Escherichia coli MITC95 [2]: 0.7813 µM | Klebsiella pneumoniae MITC95 [3]: 1.563 µM | Serratia marcescens MITC95 [4]: 0.7813 µM | IC50 (VIM-1; [7]): 0.545 nM | Efflux ratio [5]: 2.00 | Concentration of metallo-β-lactamase inhibitor which restores susceptibility of efflux − (MB9799) strain to imipenem [6]: 0.7813

NCCNc1cc(-c2ccc(S(=O)(=O)NCCO)c(S(N)(=O)=O)c2-c2nn[nH]n2)ccn1 [Example 457, 4-(2-((2-aminoethyl)amino)pyridin-4-yl)-N1-(2-hydroxyethyl)-3-(2H-tetrazol-5-yl)benzene-1,2-disulfonamide]
Concentration of metallo-β-lactamase inhibitor which restores susceptibility of efflux + (MB9798) strain to imipenem [1]: 50 | IC50 (NDM-1): 3.68 nM | IC50 (IMP-1): 5.29 nM | Escherichia coli MITC95 [2]: 1.563 µM | Klebsiella pneumoniae MITC95 [3]: 6.25 µM | Serratia marcescens MITC95 [4]: 3.125 µM | IC50 (VIM-1; [7]): 0.49 nM | Efflux ratio [5]: 31.99 | Concentration of metallo-β-lactamase inhibitor which restores susceptibility of efflux − (MB9799) strain to imipenem [6]: 1.563
